Laboratory results published in patent publication US20220096516A1, “OLIGONUCLEOTIDE MOLECULE AND APPLICATION THEREOF IN TUMOR THERAPY” (Ractigen Therapeutics, priority 2019, published 2022).
d = 2'-deoxy (DNA); r = 2'-OH (RNA)

Legend:
Format in all cases: cell-based, human
LHPP gene = experiment: High-throughput screening of saRNAs targeting LHPP promoter: LHPP mRNA by one-step RT-qPCR in Huh7 cells; details: 10 nM saRNA, 72 hours, relative to control (Mock)
Procedure, shortened: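 Huh7 cells were transfected with 10 nM saRNA using RNAiMax and lysed 72 h later. LHPP mRNA was quantified by one-step RT-qPCR in triplicate wells. Expression was normalised to HPRT1 and TBP and given as fold change versus mock-transfected cells.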

HepG2 cells = experiment: Cell viability by CCK-8 method, HepG2; details: HepG2, 10 nM, 72 h, FIG. 6B
Procedure: 8 LHPP promoter-targeting saRNAs were individually transfected into liver cancer cells at 10 nM for 72 h. In FIG. 6A, the expression level of LHPP mRNA was analyzed by RT-qPCR. In FIG. 6B, cell viability in the saRNA treatment group was evaluated by the CCK-8 method and recorded as a percentage relative to the viability of cells in a control (Mock) treatment group.
The cell viability was detected by the following CCK-8 method: the cCells were plated into a 96-well plate at 3-5×10^3 cells/well, cultured overnight, and transfected with the oligonucleotide duplexes. After 72 hour of transfection, 10 uL of CCK-8 solution (Dojindo Molecular Technologies) was added into each well. After 1 hour of incubation at 37° C., a microplate reader was used to measure absorbances at 450 nm. […]

[1] = test system: bladder cancer cell line T24; experiment: Cell viability by CCK-8 method, T24; details: T24, 10 nM, 72 h, FIG. 7B
Procedure: 8 LHPP promoter-targeting saRNAs were individually transfected into cancer cells at 10 nM for 72 h. In FIG. 7A, the expression level of LHPP mRNA was analyzed by RT-qPCR. In FIG. 7B, cell viability in the saRNA treatment group was evaluated by the CCK-8 method and recorded as a percentage relative to the viability of cells in a control (Mock) treatment group.
The cell viability was detected by the following CCK-8 method: the cCells were plated into a 96-well plate at 3-5×10^3 cells/well, cultured overnight, and transfected with the oligonucleotide duplexes. After 72 hour of transfection, 10 uL of CCK-8 solution (Dojindo Molecular Technologies) was added into each well. After 1 hour of incubation at 37° C., a microplate reader was used to measure absorbances at 450 nm.
In order to further evaluate the effect of LHPP saRNAs in inducing the mRNA expression of the LHPP gene and inhibiting the proliferation of cancer cells, eight screened saRNAs (RAG7-132, RAG7-133, RAG7-139, RAG7-177, RAG7-178, RAG7-694, RAG7-707 and RAG7-892) each were transfected into the liver cancer cell lines Huh7 (Medical Cell Resource Center, Tohoku University, Japan), HepG2 (ATCC), Hep3B (ATCC), Li-7 (Medical Cell Resource Center, Tohoku University, Japan) and SK-HEP-1 (ATCC), a lung cancer cell line A549 (ATCC), a bladder cancer cell line T24 (ATCC), a prostatic cancer cell line PC3 (ATCC), and a glioma cell line U87MG (ATCC). The mRNA expression and cell viability of the transfected cells were measured.

RAG7-133: saRNA duplex; sense GCUCUUUGUCCGCUGAUCUTT (SEQ ID NO: 1), antisense AGAUCAGCGGACAAAGAGCTT (SEQ ID NO: 165) (sugars from the 5' end r19 d2, backbone not given here)
Fold of changes in relative LHPP mRNA expression level (LHPP gene): 2.54 fold
Fold of changes in relative LHPP mRNA expression level (log2) (LHPP gene): 1.35 log2
cell proliferation (cell viability, CCK-8) (HepG2 cells): inhibited cell proliferation
cell proliferation (cell viability, CCK-8) [1]: inhibited cell proliferation
